The nature of data set [1]: Molar enthalpy of transition or fusion. The note with it: Crystal; DSC.
For data set [2] the following is noted: Crystal; visual observation.

Numbers after ± are expanded uncertainties.

For `Oc1ccc2ccccc2c1` [2-hydroxynaphthalene], the “Molar enthalpy of transition or fusion” value in data set [1] came out at 5.04 ± 0.717 kcal/mol. Moreover, in data set [2], the Normal melting temperature turned out to be 121.20 ± 1.5 °C.

The values are drawn from the NIST ThermoML archive (doi:10.1021/je100358e).
